Measurements reported in patent US20090075921A1, “Bone/joint disease sensitivity gene and use thereof” (Riken, priority 2004, published 2009).

Key:
NHAC [1] = assay: Effect of cycloheximide on asporin gene expression induction by TGF-β1 in NHAC; type: cell-based, human
Protocol: (§1) A time course of the expression of the asporin gene by TGF-β1 in NHAC was examined as described below. Cells were inoculated to a 12-well plate at 1×10^5 cells/well, and cultured in a DMEM/F12 containing 10% FBS until they became confluent. The medium was exchanged with a DMEM/F12 containing 0.2% FBS, and the cells were cultured for 24 hours, after which TGF-β1 (10 ng/ml) was added, total RNA was extracted over time, and the expression levels of the asporin and GAPDH genes were examined. As a result, the expression level of the asporin gene maximized when the cells were cultured in the presence of TGF-β1 (10 ng/ml) for 12 hours, and thereafter the expression level decreased over time (FIG. 46).
In the experimental system for asporin gene-expression induction by TGF-β1 used in the method described in Example 54, the effect of CHX (Sigma) (10 μM), a protein synthesis inhibitor, on the induction of the expression of the asporin gene (12 hours), when added 30 minutes before, simultaneously with, or 2 hours or 6 hours after addition of TGF-β1 (10 ng/ml), was examined. As a result, when CHX was added 30 minutes before, and simultaneously with, the addition of TGF-β1, asporin induction by TGF-β1 was inhibited (FIG. 48).

ATDC5 [2] = assay: Chondrocyte differentiation experiments in ATDC5 with CaM inhibitor; type: cell-based, mouse; conditions: W-7 20 μM in insulin-containing differentiation medium
Text: The embryonic tumor-derived cloned cell line ATDC5 is an in vitro chondrocyte differentiation model that enables the reproduction of all differentiation stages of chondrocytes, from initial differentiation to terminal differentiation, in the presence of insulin. To analyze the role of calmodulin (CaM) in chondrocyte differentiation, the present inventors cultured ATDC5 in the presence of W-7, which is a CaM inhibitor, and quantified the expression levels of chondrocyte differentiation markers, i.e., the type II collagen gene (Col2a1), the aggrecan gene (Agc1), and the type X collagen gene (Col10a1). […] Medium exchange was performed every two days; cultivation was continued for up to 22 days, counted from the day of exchange to the differentiation medium. […] Quantitative real-time PCR was performed using ABI PRISM 7700 (Applied Biosystems). PCR reactions were performed using a system of a final volume of 20 μl [reverse transcription reaction mixture 1 μl, QuantiTect SYBR Green PCR (QIAGEN) 10 μl, 10 μM forward primer 0.6 μl, 10 μM reverse primer 0.6 μl, […]]. […] The copy number of the target gene in each sample was calculated from a calibration curve prepared using serial dilutions of target gene DNA of a known copy number. The expression level of each gene was corrected by total RNA content calculated with the expression level of Gapdh as the index.

RCJ3.1C5.18 cells = assay: Ionomycin stimulation experiments in chondrocyte precursor cell line RCJ3.1C5.18; type: cell-based, rat; conditions: ionomycin 2 μM, W-7 0 to 10 μM, 24 hours
Protocol: RCJ3.1C5.18 cells are cells having characters as chondrocyte precursor cells, and showing increased expression of the type II collagen gene and the aggrecan gene in response to stimulation with ionomycin, which is a reagent that raises intracellular calcium concentrations. The present inventors analyzed the involvement of CaM in this reaction using W-7, which is a CaM inhibitor. For ordinary culture, DMEM (Sigma) comprising 10% FBS and antibiotics (100 U/ml penicillin G and 100 μg/ml streptomycin) was used. The stimulation experiments were performed by the procedure shown below. Cells were inoculated to a 12-multiwell plate at 1×10^5 cells/well. […] Quantitative real-time PCR was performed using ABI PRISM 7700 (Applied Biosystems). PCR reactions were performed using a system of a final volume of 20 μl [reverse transcription reaction mixture 1 μl, QuantiTect SYBR Green PCR (QIAGEN) 10 μl, 10 μM forward primer 0.6 μl, 10 μM reverse primer 0.6 μl, […]]. […] The copy number of the target gene in each sample was calculated from a calibration curve prepared using serial dilutions of target gene DNA of a known copy number. The expression level of each gene was corrected by total RNA content calculated with the expression level of GADPH as the index.

NHAC-kn = assay: Induction with TGF-β1 of asporin gene expression in NHAC-kn; type: cell-based, human; conditions: TGF-β1 10 ng/ml, 24 hours
Protocol: (§2) In various cartilage lineage cell lines, the potential of TGF-β1 for inducing asporin gene expression was examined by the method described below. OUMS-27 was cultured in a DMEM containing 10% FBS, CS-OKB was cultured in an RPMI1640 containing 10% FBS, and normal human articular chondrocytes of knee joint (NHAC-kn, P7, monolayer, Clonetics) were cultured using Chondrocyte Growth Medium (CGM, Clonetics). ATDC5 was cultured using the medium 1-2 described in Example 13. For the induction experiments in the cartilage lineage cell lines, cells were cultured in the above-described media until they became confluent, after which the medium was exchanged with a medium containing 0.2% FBS, and the cells were cultured for 12 hours; TGF-β1 (10 ng/ml) was added, and the cells were further cultured for 24 hours. RNA extraction, cDNA synthesis, and real-time PCR were performed by the methods described in Example 12.

OUMS-27 = assay: Induction with TGF-β1 of asporin gene expression in OUMS-27; type: cell-based, human; conditions: TGF-β1 10 ng/ml, 24 hours
Protocol: as §2

ATDC5 [3] = assay: Induction with TGF-β1 of asporin gene expression in ATDC5; type: cell-based, mouse; conditions: TGF-β1 10 ng/ml, 24 hours
Protocol: as §2

NHAC [4] = assay: Articular chondrocyte differentiation maintenance in redifferentiated NHAC; type: cell-based, human; conditions: 7 days, TGF-β1 40 ng/ml, asporin 20 μg/ml where added
Protocol: NHAC was redifferentiated by alginate beads culture for 2 weeks using a chondrocyte differentiation medium (CDM) manufactured by Cambrex Company according to the protocol attached. These redifferentiated cells were inoculated to a Lab-Tek II chamber slide (Nunc), a DMEM/F12 containing 5% FBS, ITS (Sigma), and TGF-β1 (40 ng/ml) was added, and the cells were allowed to maintain the degree of differentiation thereof; the effects of addition of asporin (20 μg/ml) on the cell morphology and extracellular proteoglycan accumulation were examined.

NHAC [5] = assay: Time course of asporin gene expression by TGF-β1 in NHAC; type: cell-based, human; conditions: TGF-β1 10 ng/ml
Protocol: as §1

NHAC [6] = assay: MTT assay of TGF-β1-stimulated cell growth in NHAC; type: cell-based, human; conditions: TGF-β1 40 ng/ml alone, 5 days
Protocol: NHAC was inculated to a 12-well plate at 1×10^5 cells/well, and cultured in a DMEM/F12 containing 10% FBS supplemented with TGF-β1 (40 ng/ml) and asporin (5 or 20 μg/ml) for 5 days, after which the degree of cell growth was examined by the MTT assay method described below. Specifically, 3-(4,5-dimethyl-2-thiazolyl)-2,5-diphenyl-2H-tetrazolium bromide (MTT, Dojindo Laboratory) was dissolved in DMEM/F12 to obtain a concentration of 1 mg/ml, the solution was added to the cells after the medium was removed by suction, and the cells were cultured at 37° C. for 1 hour. Thereafter the medium containing MTT was discarded, and the cells were subjected to extraction treatment using a Lysis reagent (86% isopropanol, 40 mM hydrochloric acid, 1% SDS). This cell lysate was transferred to a 96-well plate, and the absorbance at 550 nm was measured using a microplate reader.

TGF-β1 = TGF-β1 (Homo sapiens, UniProt P01137); assay: Microplate binding assay, inhibition of biotinylated decholine binding to TGF-β1 solid phase; conditions: TGF-β1-coated microplate
Chain of TGF-β1 (P01137 279-390 limits assumed, species assumed): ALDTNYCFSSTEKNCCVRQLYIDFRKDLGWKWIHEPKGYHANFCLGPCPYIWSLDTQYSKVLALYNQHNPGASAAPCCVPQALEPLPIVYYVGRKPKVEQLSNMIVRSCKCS
Protocol: A binding assay of mouse asporin and TGF-β using the microplate assay method was performed with the degree of inhibition of binding of biotinylated decholine and TGF-β as the index, as described below. To a Maxisorp 96-well microplate of Nunc, a 1 μg/ml TGF-β1 solution prepared with 0.05 M sodium carbonate buffer (pH 9.6) was dispensed at 100 μl/well, and the microplate was coated with the solution at 4° C. overnight. The TGF-β-coated wells were blocked in a 200 μl/well of binding buffer (50 mM Tris (pH 7.4), 150 mM NaCl, 2% BSA, 0.05% Tween 20) at 37° C. for 3 hours. The wells were once washed with a 400 μl/well of binding buffer, after which biotinylated decholine and non-labeled protein, prepared with the binding buffer, were added to obtain a total quantity of 100 μl per well, and the microplate was incubated at 37° C. for 6 hours. The wells were washed with a 400 μl/well of binding buffer 3 times, after which streptavidin-HRP (R&D System), diluted 200 fold with the binding buffer, was added at 100 μl/well, and the microplate was incubated at room temperature for 20 minutes. […] The reaction was stopped by the direct addition of 1 M phosphoric acid at 100 μl/well, and absorbance at 415 nm (control: 750 nm) was measured using Ultramark Microplate Imaging System (BIO-RAD). […]

C[C@@H]1C[C@@H]([C@H](O)CC2CC(=O)NC(=O)C2)C(=O)[C@@H](C)C1 [CHX, cycloheximide]
asporin induction by TGF-β1 (NHAC [1]; CHX 10 μM added 30 minutes before or simultaneously with TGF-β1 10 ng/ml): inhibited | asporin induction by TGF-β1 (NHAC [1]; CHX 10 μM added at 2 hours or thereafter following TGF-β1): induction of asporin gene expression by TGF-β1 was observed

NCCCCCCNS(=O)(=O)c1cccc2c(Cl)cccc12 [W-7]
increases in the expression levels of Col2a1 and Agc1 (ATDC5 [2]; real-time PCR): suppressed to about half | expression level of Col10a1 (ATDC5 [2]; up to Day 22): further rose | ionomycin-induced expression of the type II collagen gene and the aggrecan gene (RCJ3.1C5.18 cells): suppressed dose-dependently

TGF-β1: TGF-β isoform, regulatory factor of cartilage differentiation used as stimulus
expression of the asporin gene with TGF-β1 stimulation (NHAC-kn): significant increases | expression of the asporin gene with TGF-β1 stimulation (OUMS-27): significant increases | expression of asporin with TGF-β1 stimulation (ATDC5 [3]): tended to be slightly suppressed | Safranine-O stainability (extracellular proteoglycan) (NHAC [4]): positive | cell morphology (NHAC [4]): egg-like morphology | culture time at which the expression level of the asporin gene maximized (NHAC [5]): 12 h | expression level of asporin after 3 days in the presence of TGF-β1 (NHAC [5]; vs control): smaller than that without induction | cell growth of NHAC (MTT, absorbance at 550 nm) (NHAC [6]): increased

B1: Fr.18-21: partially purified product of Escherichia coli recombinant S-tagged mouse asporin (protein, UniProt Q99MQ4 33-373, looked up)
Asporin: DMEDTDDDDNDDDDNSLFPTKEPVNPFFPFDLFPTCPFGCQCYSRVVHCSDLGLTSVPNNIPFDTRMVDLQNNKIKEIKENDFKGLTSLYALILNNNKLTKIHPKTFLTTKKLRRLYLSHNQLSEIPLNLPKSLAELRIHDNKVKKIQKDTFKGMNALHVLEMSANPLENNGIEPGAFEGVTVFHIRIAEAKLTSIPKGLPPTLLELHLDFNKISTVELEDLKRYRELQRLGLGNNRITDIENGTFANIPRVREIHLEHNKLKKIPSGLQELKYLQIIFLHYNSIAKVGVNDFCPTVPKMKKSLYSAISLFNNPMKYWEIQPATFRCVLGRMSVQLGNVGK
modifications: S-tag; partially purified fraction
notes: partially purified product of Escherichia coli recombinant S-tagged mouse asporin
inhibition of binding of biotinylated decholine to TGF-β1 (TGF-β1): observed with dependence on protein content

B2: S-tagged mouse asporin: S-tagged mature mouse asporin expressed in E. coli from pET29b-MASP, contained in Fr.18-21 (protein)
chain: B1 Asporin
modifications: left off: small tags and cut ends
binding of S-tagged mouse asporin to the TGF-β1 solid phase (TGF-β1): binding of S-tagged mouse asporin was observed
